# How the values were obtained:
# c-Met [1] = target: T1, c-Met (Homo sapiens, UniProt P08581); test: Delfia autophosphorylation kinase assay on the c-Met; assay type: biochemical; set-up: The purified His6 tagged cytoplasmic domain of c-Met was diluted to a concentration of 500 ng/ml; host or cells: Sf9 insect cells (baculovirus, pFastBacHTa); details: His6 tagged cytoplasmic domain of c-Met, 1 μM ATP; read-out: cMet Delfia autophos IC-50
# Description: A DELFIA time resolved fluorescence assay was developed for screening of compounds that decreases the autophosphorylation thus the kinase activity of c-Met. The DELFIA assay is non-radioactive. The autophosphorylation of the c-Met is measured by an anti-phosphotyrosine antibody coupled to an Europium tag.
# A major advantage of this format is that it allowed for the development of an autophosphorylation assay using Ni-chelate plates which bind the hexa-his tag on the recombinant Met kinase. The autophosphorylation assay allows one to use a known substrate, Met kinase itself, for the phosphorylation.
# The assay procedure for screening is as follows. The purified His6 tagged cytoplasmic domain of c-Met was diluted to a concentration of 500 ng/ml in enzyme dilution buffer (50 mM Tris-HCl, pH8.0, 0.1% BSA) and dispensed to assay plates at a volume of 50 μl per well. Black opaque HisGrab Nickel coated 96 well plates (Pierce, Rockford, Ill.) were selected for use. Next, 2.5 μl of compound in 40% DMSO was added to test wells, 2.5 μl of 40% DMSO only was added to the negative control wells. The autophosphorylation reaction was initiated upon the addition of 50 μl of reaction buffer, 50 mM Tris-HCl, pH 8.0, 10 mM MgCl2, 0.1 mM Na3VO4, 1 mM DTT, 1 μM ATP. Plates were incubated at room temperature for 1 hour followed by 2 washes with 200 μl/well of PBS. Europium conjugated anti-phosphotyrosine antibody, Eu-PY20 from Perkin Elmer was diluted to 50 ng/ml in Delfia AB buffer (Perkin Elmer, Boston, Mass.), added to the 96 well assay plates at a volume of 100 μl/well, and incubated at room temperature for 2 hours. Assay plates were then washed 4 times each with 200 μl/well of Delfia wash buffer (Perkin Elmer). After the final wash 150 μl of Delfia Enhancement solution (Perkin Elmer) was added to each well of the assay plate and incubated at room temperature for 1 hour. Plates were read on an LJL Analyst instrument (Molecular Devices; Sunnyvale, Calif.) with filter settings of 360 excitation, 620 emission, and 410 dichroic. IC50 values were calculated using Graphpad Prism software (Graphpad Software; San Diego, Calif.).
# Target sequence in this assay (P08581 956-1390 limits assumed): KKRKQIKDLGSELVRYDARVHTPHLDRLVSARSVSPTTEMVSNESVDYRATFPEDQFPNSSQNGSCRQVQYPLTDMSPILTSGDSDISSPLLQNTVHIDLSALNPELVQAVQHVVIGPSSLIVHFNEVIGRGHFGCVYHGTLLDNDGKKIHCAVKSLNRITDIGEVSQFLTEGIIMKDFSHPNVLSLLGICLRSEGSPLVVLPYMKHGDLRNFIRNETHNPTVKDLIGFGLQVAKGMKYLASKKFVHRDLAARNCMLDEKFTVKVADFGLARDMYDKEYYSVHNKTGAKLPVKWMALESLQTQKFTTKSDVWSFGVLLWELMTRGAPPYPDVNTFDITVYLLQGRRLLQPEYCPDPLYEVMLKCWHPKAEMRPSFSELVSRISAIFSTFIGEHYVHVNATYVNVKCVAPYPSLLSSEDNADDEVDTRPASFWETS
# c-Met [2] = target: T1, c-Met; test: Cell based ELISA assay for HGF stimulated c-Met phosphorylation in S114 cells; set-up: expressed in transfected cells; host or cells: S114 (murine NIH 3T3 derived); details: read-out: c-Met Cell ELISA IC-50
# Description: A cell based ELISA assay was developed to evaluate the ability of compounds to inhibit HGF stimulated c-Met phosphorylation in cells.
# S114 cells were seeded to a 96 well tissue culture treated dish at a concentration of 5×10^4 per well. After a 16-20 hour incubation, culture medium was removed and replaced with serum free medium supplemented with 0.5% BSA. Test compound was then added and incubated with the cells for 60 minutes, followed by the addition of 1 μl HGF at […] for 15 minutes. […] Following another 1 hour incubation at room temperature the plates were washed three times with Delfia wash buffer (Perkin Elmer). After the final wash, […] of Delfia enhancer solution (Perkin Elmer) was added and allowed to incubate for 60 minutes. Plates were read on an LJL Analyst instrument (Molecular Devices; Sunnyvale, Calif.) with filter settings of 360 excitation, 620 emission, and 410 dichroic. IC50 values were calculated using Graphpad Prism software (Graphpad Software; San Diego, Calif.).
# Target sequence in this assay (P08581 25-1390): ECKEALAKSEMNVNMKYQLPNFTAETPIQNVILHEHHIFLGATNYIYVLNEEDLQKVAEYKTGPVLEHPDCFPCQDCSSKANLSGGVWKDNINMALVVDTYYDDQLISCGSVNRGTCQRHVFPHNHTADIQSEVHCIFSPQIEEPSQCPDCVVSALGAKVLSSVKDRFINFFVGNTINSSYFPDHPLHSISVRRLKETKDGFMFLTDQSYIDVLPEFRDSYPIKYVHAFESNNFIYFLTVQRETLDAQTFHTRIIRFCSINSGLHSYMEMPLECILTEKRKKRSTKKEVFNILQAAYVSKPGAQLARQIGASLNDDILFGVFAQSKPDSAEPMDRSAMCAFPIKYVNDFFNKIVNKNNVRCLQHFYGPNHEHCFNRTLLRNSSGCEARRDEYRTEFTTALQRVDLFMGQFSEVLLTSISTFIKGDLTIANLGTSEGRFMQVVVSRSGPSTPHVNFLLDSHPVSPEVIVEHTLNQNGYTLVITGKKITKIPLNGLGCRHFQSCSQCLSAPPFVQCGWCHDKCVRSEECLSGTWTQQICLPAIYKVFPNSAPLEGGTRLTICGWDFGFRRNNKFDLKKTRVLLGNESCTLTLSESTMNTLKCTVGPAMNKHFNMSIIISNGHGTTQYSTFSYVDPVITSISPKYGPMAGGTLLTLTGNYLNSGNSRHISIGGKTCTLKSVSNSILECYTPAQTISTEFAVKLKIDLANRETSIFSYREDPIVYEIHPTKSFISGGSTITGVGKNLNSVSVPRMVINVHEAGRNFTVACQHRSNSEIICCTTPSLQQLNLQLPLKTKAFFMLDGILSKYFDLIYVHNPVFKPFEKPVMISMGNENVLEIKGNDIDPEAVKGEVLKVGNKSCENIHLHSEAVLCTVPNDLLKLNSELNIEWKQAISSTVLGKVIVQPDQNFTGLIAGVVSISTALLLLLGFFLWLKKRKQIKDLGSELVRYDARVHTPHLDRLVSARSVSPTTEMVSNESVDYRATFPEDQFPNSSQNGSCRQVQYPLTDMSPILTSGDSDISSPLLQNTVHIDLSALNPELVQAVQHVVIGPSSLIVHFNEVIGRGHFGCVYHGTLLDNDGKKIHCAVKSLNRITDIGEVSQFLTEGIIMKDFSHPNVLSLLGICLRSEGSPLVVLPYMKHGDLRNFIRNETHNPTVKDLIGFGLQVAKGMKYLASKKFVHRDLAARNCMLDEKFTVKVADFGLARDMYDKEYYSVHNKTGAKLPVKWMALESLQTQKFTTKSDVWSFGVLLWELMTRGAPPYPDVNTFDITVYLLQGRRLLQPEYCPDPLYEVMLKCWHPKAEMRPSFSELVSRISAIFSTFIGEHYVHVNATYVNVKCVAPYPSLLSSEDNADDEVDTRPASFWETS
Structure (SMILES),IC50 (c-Met [1]) [nM],IC50 (c-Met [2]) [nM]
"COCCN(CCOC)C(=O)c1ccc(-c2ccc3nnc(Cc4ccc5c(c4)CCO5)n3n2)s1 [Example 51, 5-[3-(2,3-Dihydro-benzofuran-5-ylmethyl)-[1,2,4]triazolo[4,3-b]pyridazin-6-yl]-thiophene-2-carboxylic acid bis-(2-methoxy-ethyl)-amide]",0.2,8
"CC(C)CCNC(=O)c1ccc(-c2ccc3nnc(Cc4ccc5c(c4)CCO5)n3n2)s1 [Example 53, 5-[3-(2,3-Dihydro-benzofuran-5-ylmethyl)-[1,2,4]triazolo[4,3-b]pyridazin-6-yl]-thiophene-2-carboxylic acid (3-methyl-butyl)-amide]",4,35
"COc1ccc(C(F)(F)c2nnc3ccc(-c4cccs4)nn23)cc1 [Example 58, 3-[Difluoro-(4-methoxy-phenyl)-methyl]-6-thiophen-2-yl-[1,2,4]triazolo[4,3-b]pyridazine]",95,314
"c1csc(-c2ccc3nnc(Cc4ccc5ncccc5c4)n3n2)c1 [Example 39, 6-(6-Thiophen-2-yl-[1,2,4]triazolo[4,3-b]pyridazin-3-ylmethyl)-quinoline]",2,1
"CS(=O)(=O)N1CCN(C(=O)c2ccc(-c3ccc4nnc(Cc5ccc6ncccc6c5)n4n3)s2)CC1 [Example 56, (4-Methanesulfonyl-piperazin-1-yl)-[5-(3-quinolin-6-ylmethyl-[1,2,4]triazolo[4,3-b]pyridazin-6-yl)-thiophen-2-yl]-methanone]",0.9,23
"c1csc(-c2ccc3nnc(Cc4ccc5occc5c4)n3n2)c1 [Example 35, 3-Benzofuran-5-ylmethyl-6-thiophen-2-yl-[1,2,4]triazolo[4,3-b]pyridazine]",9,75
"FC(F)(c1ccc2ncccc2c1)c1nnc2ccc(-c3cccnc3)nn12 [Example 59, 6-[Difluoro-(6-pyridin-3-yl-[1,2,4]triazolo[4,3-b]pyridazin-3-yl)-methyl]-quinoline]",3,8
"CN1CCN(C(=O)c2ccc(-c3ccc4nnc(Cc5ccc6ncccc6c5)n4n3)s2)CC1 [Example 47, (4-Methyl-piperazin-1-yl)-[5-(3-quinolin-6-ylmethyl-[1,2,4]triazolo[4,3-b]pyridazin-6-yl)-thiophen-yl]-methanone]",0.4,1
"c1cncc(-c2ccc3nnc(Cc4ccc5ncccc5c4)n3n2)c1 [Example 11, 6-(6-Pyridin-3-yl-[1,2,4]triazolo[4,3-b]pyridazin-3-ylmethyl)-quinoline]",6,86
"CN1CCN(C(=O)c2ccc(-c3ccc4nnc(Cc5ccc6c(c5)CCO6)n4n3)s2)CC1 [Example 50, {5-[3-(2,3-Dihydro-benzofuran-5-ylmethyl)-[1,2,4]triazolo[4,3-b]pyridazin-6-yl]-thiophen-2-yl}-(4-methyl-piperazin-1-yl)-methanone]",2,12
"c1cc2c(cc1Cc1nnc3ccc(-c4ccc(CN5CCOCC5)s4)nn13)CCO2 [Example 42, 3-(2,3-Dihydro-benzofuran-5-ylmethyl)-6-(5-morpholin-4-ylmethyl-thiophen-2-yl)-[1,2,4]triazolo[4,3-b]pyridazine]",13,406
"Cc1ccsc1-c1ccc2nnc(Cc3ccc4c(c3)CCO4)n2n1 [Example 23, 3-(2,3-Dihydro-benzofuran-5-ylmethyl)-6-(3-methyl-thiophen-2-yl)-[1,2,4]triazolo[4,3-b]pyridazine]",41,113
"CCOC(=O)c1ccc(-c2ccc3nnc(Cc4ccc(O)cc4)n3n2)s1 [Example 48, 5-[3-(4-Hydroxy-benzyl)-[1,2,4]triazolo[4,3-b]pyridazin-6-yl]-thiophene-2-carboxylic acid ethyl ester]",2,14
"Oc1ccc(Cc2nnc3ccc(-c4ccn[nH]4)nn23)cc1 [Example 5, 4-[6-(2H-Pyrazol-3-yl)-[1,2,4]triazolo[4,3-b]pyridazin-3-ylmethyl]-phenol]",15,1930
"O=C(NCCN1CCOCC1)c1ccc(-c2ccc3nnc(Cc4ccc5c(c4)CCO5)n3n2)s1 [Example 52, 5-[3-(2,3-Dihydro-benzofuran-5-ylmethyl)-[1,2,4]triazolo[4,3-b]pyridazin-6-yl]-thiophene-2-carboxylic acid (2-morpholin-4-yl-ethyl)-amide]",3,40

# The remaining lines, values ahead:
IC50 (c-Met [1]) [nM],IC50 (c-Met [2]) [nM],Structure (SMILES)
4,180,"c1cnc2ccc(Cc3nnc4ccc(-c5cn[nH]c5)nn34)cc2c1 [Example 76, 6-[6-(1H-Pyrazol-4-yl)-[1,2,4]triazolo[4,3-b]pyridazin-3-ylmethyl]-quinoline]"
0.6,4,"Cc1cc(-c2ccc3nnc(Cc4ccc5ncccc5c4)n3n2)ccn1 [Example 87, 6-[6-(2-Methyl-pyridin-4-yl)-[1,2,4]triazolo[4,3-b]pyridazin-3-ylmethyl]-quinoline]"
3,79,"CN1CCN(C(=O)c2ccc(-c3ccc4nnc(C(F)(F)c5ccc6occc6c5)n4n3)s2)CC1 [Example 102, {5-[3-(Benzofuran-5-yl-difluoro-methyl)-[1,2,4]triazolo[4,3-b]pyridazin-6-yl]-thiophen-2-yl}-(4-methyl-piperazin-1-yl)-methanone]"
30,3300,"Cc1nc2ccc(-c3ccc4nnc(Cc5ccc6ncccc6c5)n4n3)cc2[nH]1 [Example 79, 6-[6-(2-Methyl-3H-benzoimidazol-5-yl)-[1,2,4]triazolo[4,3-b]pyridazin-3-ylmethyl]-quinoline]"
0.3,2,"c1cnc2ccc(Cc3nnc4ccc(-c5cnc6ccccc6c5)nn34)cc2c1 [Example 65, 6-(6-Quinolin-3-yl-[1,2,4]triazolo[4,3-b]pyridazin-3-ylmethyl)-quinoline]"
1.5,2,Clc1ccc(-c2ccc3nnc(Cc4ccc5ncccc5c4)n3n2)s1 [Example 77]
1,9,"Clc1cc(-c2ccc3nnc(Cc4ccc5ncccc5c4)n3n2)ccn1 [Example 95, 6-[6-(2-Chloro-pyridin-4-yl)-[1,2,4]triazolo[4,3-b]pyridazin-3-ylmethyl]-quinoline]"
2,50,"Nc1ccc(-c2ccc3nnc(Cc4ccc5ncccc5c4)n3n2)cn1 [Example 88, 5-(3-Quinolin-6-ylmethyl-[1,2,4]triazolo[4,3-b]pyridazin-6-yl)-pyridin-2-ylamine]"
17,170,"c1cnc2ccc(Cc3nnc4ccc(-c5cncnc5)nn34)cc2c1 [Example 64, 6-(6-Pyrimidin-5-yl-[1,2,4]triazolo[4,3-b]pyridazin-3-ylmethyl)-quinoline]"
4,230,"COc1ccc(-c2ccc3nnc(Cc4ccc5ncccc5c4)n3n2)cn1 [Example 89, 6-[6-(6-Methoxy-pyridin-3-yl)-[1,2,4]triazolo[4,3-b]pyridazin-3-ylmethyl]-quinoline]"
20,99,"Cn1cc(-c2ccc3nnc(Cc4ccc5nccnc5c4)n3n2)cn1 [Example 71, 6-[6-(1-Methyl-1H-pyrazol-4-yl)-[1,2,4]triazolo[4,3-b]pyridazin-3-ylmethyl]-quinoxaline]"
